Patent US20100234381A1, “BIOMARKERS AND METHODS FOR DETERMINING SENSITIVITY TO VASCULAR ENDOTHELIAL GROWTH FACTOR RECEPTOR-2 MODULATORS” (Bristol-Myers Squibb Company, priority 2007, published 2010)

Key:
[1] = tested on: FGF2-stimulated cancer cell lines; assay: FGF2-stimulated tumor cell proliferation, panel of cancer cell lines; assay type: cell-based; settings: panel of 16 cell lines; FGF2 2.5 ng/ml; read-out: IC50, FGF2-induced tumor cell proliferation in vitro
Procedure: […], GEO, L2987, 786-0, A549, A498, Du145, PANC-1, ACHN, HT1197, CALU6, SKOV3, 769-[…], HCT166 and UMUC3. […] Gene expression profiling was performed on RNA samples from tumor cell lines using AFFYMETRIX® GeneChip System.

[2] = tested on: A2780 ovarian cancer cells; assay: FGF2-induced proliferation of A2780 ovarian cancer cells (modified MTS assay); assay type: cell-based; settings: A2780 ovarian cancer cells
Procedure: (§1) Cell proliferation was determined by a modified MTS assay with […] 96® Aqueous One Solution Reagent (Promega, Madison, Wis.). A2780 ovarian cancer cells, MIAPAC-2 pancreatic cancer cells, or GEO colon cancer cells were seeded on 96-well flat-bottomed tissue culture plates (Becton Dickinson, San Jose, Calif.) at a concentration of 3×10^3 cells/well in RPMI 1640 with 1% fetal bovine serum at 37° C. in 5% carbon dioxide/95% air in the presence of 100 units/ml penicillin, 100 μg/ml streptomycin and allowed to adhere to the plate overnight. Then the cells were incubated in the presence of each concentration of 0 (control), 0.3, 0.6, 1.25, 2.5, 5, 10 ng/ml of FGF2 or VEGF for another 72 hours at 37° C. in a humidified atmosphere of 5% CO2 in air. After treatment, 20 μl of […] 96® Aqueous One Solution Reagent was dropped into each well of plates. After 180 minutes incubation, the optical densities (OD) of these samples were directly measured using SPECTRAMAX® plus (Molecular Device, California) and reference wavelength of 490 nm. The OD of control samples was regarded as 100. Each condition was performed with 4 wells and experiment was repeated twice.

[3] = tested on: MIAPAC-2 pancreatic cancer cells; assay: FGF2-induced proliferation of MIAPAC-2 pancreatic cancer cells (modified MTS assay); assay type: cell-based; settings: MIAPAC-2 pancreatic cancer cells
Procedure: as §1

[4] = tested on: ovarian cancer cell line A2870; assay: VEGF-induced proliferation of ovarian cancer cell line A2870; assay type: cell-based; settings: data not shown
Procedure: as §1

[5] = tested on: pancreatic cancer cell line MIAPAC-2; assay: VEGF-induced proliferation of pancreatic cancer cell line MIAPAC-2; assay type: cell-based; settings: data not shown
Procedure: as §1

[6] = tested on: FGF2 growth factor gene expression; assay: FGF2 gene expression, AFFYMETRIX human arrays
VEGF gene expression = assay: VEGF gene expression, AFFYMETRIX human arrays

Row | IC50 [1] [µM] | Molecule | effect on FGF2-induced cellular proliferation [2] | effect on FGF2-induced cellular proliferation [3] | effect on VEGF-induced cellular proliferation [4] | effect on VEGF-induced cellular proliferation [5] | modulation of FGF2 growth factor gene expression levels [6] | modulation of VEGF gene expression levels (VEGF gene expression)
1 | ~10 | CCN(CC)CCNC(=O)c1c(C)[nH]c(/C=C2\C(=O)Nc3ccc(F)cc32)c1C [sunitinib, reference compound] |  |  |  |  |  | 
2 |  | bevacizumab [reference compound] | did not show significant sensitivity | did not show significant sensitivity | did not show significant sensitivity | did not show significant sensitivity | did not | modulated VEGF gene expression levels
